This is an account of results in US20090227556A1, “RECEPTOR TYROSINE KINASE INHIBITORS COMPRISING PYRIDINE AND PYRIMIDINE DERIVATIVES” (Eisai R&D Management Co., Ltd., priority 2008, published 2009).

Each structure is given as a SMILES string.

The target in this experiment is T1, VEGFR-2 tyrosine kinase (His6-VEGFR-2, cytoplasmic domain) (Homo sapiens, UniProt P35968).
T1 construct: made in house; host or cells: Sf9 insect cells (baculovirus, pFastBac-HT)
T1 sequence (P35968 786-1356 limits assumed): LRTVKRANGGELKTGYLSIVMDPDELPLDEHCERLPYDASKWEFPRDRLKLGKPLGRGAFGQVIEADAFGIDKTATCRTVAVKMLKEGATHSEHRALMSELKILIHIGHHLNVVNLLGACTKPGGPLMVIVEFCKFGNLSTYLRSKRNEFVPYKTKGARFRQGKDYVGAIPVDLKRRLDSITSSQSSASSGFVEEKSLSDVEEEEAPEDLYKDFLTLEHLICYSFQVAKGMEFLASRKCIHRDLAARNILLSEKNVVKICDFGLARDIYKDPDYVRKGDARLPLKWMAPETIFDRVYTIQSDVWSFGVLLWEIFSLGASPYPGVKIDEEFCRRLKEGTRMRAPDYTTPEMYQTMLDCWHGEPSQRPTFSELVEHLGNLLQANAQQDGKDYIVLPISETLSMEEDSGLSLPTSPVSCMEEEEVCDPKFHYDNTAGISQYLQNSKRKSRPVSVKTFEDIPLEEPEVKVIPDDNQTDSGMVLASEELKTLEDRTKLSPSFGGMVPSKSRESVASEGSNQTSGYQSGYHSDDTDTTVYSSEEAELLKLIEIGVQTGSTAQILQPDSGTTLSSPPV
Description: Inhibitory activity on VEGFR-2 tyrosine kinase (HTRF). It counts as biochemical. The note with it: biotin-poly(GT) substrate. The source says:
Cytoplasmic domain of VEGFR-2 (Genbank Accession No. L04947) is a 1.7 kb DNA fragment starting from lysine 791 and contains a stop codon, as described by Tarman et al. (Oncogene, 6(9), 1677-1683, 1991). This DNA fragment was isolated from a human placental cDNA library (obtained from Clontech Laboratories, Inc.) with two primers (obtained from TaKaRa Ex Taq™ Kit, TaKaRa) using a PCR method. This DNA fragment was cloned into a baculovirus transplace vector (pFastBac™-HT (obtained from GIBCO BRL)), to obtain a recombinant construct. An insect cell (Spodoptera frugiperda 9 (Sf9)) was transfected with it, and a VEGFR-2 recombinant baculovirus solution was prepared (preparation of the recombinant baculovirus can be found in a standard textbook (Bac-to-Bac Baculovirus Expression System (GIBCO BRL)).
To Sf9 cells (3×10^8 cells) suspended in a SF-90011 culture medium containing 2% FBS (obtained from Invitrogen Corp.), the above mentioned recombinant VEGFR-2 baculovirus solution (4 ml) was added and incubated with shaking at 27° C. for 48 hours. The recombinant VEGFR-2 baculovirus-infected cell culture was centrifuged at 4° C. at 1000 rpm for 5 minutes, and the supernatant was removed. The precipitated infected cells were suspended in 80 ml of ice-cold PBS, the suspension was centrifuged at 4° C. at 1000 rpm for 5 minutes, and the supernatant was removed. The precipitated infected cells were suspended in 40 ml of ice-cold Lysis Buffer (50 mM Tris-HCl (pH 8.5), 5 mM 2-mercaptoethanol, 100 mM KCl, 1 mM PMSF, and 1% (v/v) NP-40). This suspension was centrifuged at 4° C. at 12,000 rpm for 30 min to obtain a supernatant.
This supernatant was added to a Ni-NTA agarose column (3 ml, obtained from Qiagen) which had been equilibrated with 30 ml of Buffer A (20 mM Tris-HCl (pH 8.5), 5 mM 2-mercaptoethanol, 500 mM KCl, 20 mM imidazole, and 10% (v/v) glycerol). This column was washed sequentially with 30 ml of Buffer A, 6 ml of Buffer B (20 mM Tris-HCl (pH 8.5), 5 mM 2-mercaptoethanol, 1M KCl, and 10% (v/v) glycerol), and 6 ml of Buffer A. Then, to this column, 6 ml of Buffer C (20 mM Tris-HCl (pH 8.5), 5 mM 2-mercaptoethanol, 100 mM KCl, 100 mM imidazole, and 10% (v/v) glycerol) was added to obtain an eluate. This eluate was poured into a dialysis membrane (obtained from Spectrum Laboratories) and dialyzed with 1 liter of dialysis buffer (20 mM Tris-HCl (pH 7.5), 10% (v/v) glycerol, 1 mM DTT, 0.1 mM Na3VO4, 0.1 mM EGTA) at 4° C. overnight and stored at −80° C. until use. After the dialysis, a part of the eluate was subjected to a SDS electrophoresis, and the recombinant protein (His 6-VEGFR-2, a cytoplasmic domain of VEGFR-2 fused with 6 histidine residues on its N-terminus) detected at about 100 kDa Mw in Coomassie Brilliant Blue staining was subjected to protein quantification using BSA (obtained from Sigma Co. Ltd.) as a standard.
In each well of a 96-well round bottom plate (obtained from NUNC, product number 163320), 10 μl of a solution for kinase reaction (200 mM Hepes (pH 7.4), 80 mM MgCl2, 16 mM MnCl2, 2 mM Na3VO4), 250 ng of biotin-conjugated poly (Glu 4: Tyr 1) (biotin-poly (GT) obtained from Nihon Schering K.K.) (6 μl of 1/15 diluted solution with distilled water), 15 ng of His6-VEGFR-2 (10 μl of a 1/240 diluted solution with a 0.4% BSA solution), and a test substance solution in dimethyl sulfoxide (4 μl of 1/100 dilution with 0.1% BSA) were added to make a total volume of 30 μl. To them, 10 μl of 4 μM ATP (obtained from Sigma Co. Ltd.) diluted with distilled water was added, and the resultant was incubated for 10 minutes at 30° C., followed by addition of 10 μl of 500 mM EDTA (pH 8.0) (obtained from Wako Pure Chemical Industries, Ltd.) to obtain a kinase reaction solution.
To detect tyrosine-phosphorylated biotin-poly (GT), the Homogenous Time-Resolved Fluorescence (HTRF) method was used (Analytical Biochemistry, 269, 94-104, 1999). […]
For orientation: TR-FRET usually uses a lanthanide donor and a delayed reading to cut background.
By IC50 is commonly meant the concentration that inhibits the measured activity by half. Read a low IC50 as inhibition by little substance. For the compound `O=C(Nc1cc(Oc2cc(F)c(NC(=O)C3(C(=O)Nc4ccc(F)cc4)CC3)cc2F)ccn1)N1CC(CO)C1` [N-(2,5-Difluoro-4-{[2-({[3-(hydroxymethyl)azetidin-1-yl]carbonyl}amino)pyridin-4-yl]oxy}phenyl)-N′-(4-fluorophenyl)cyclopropane-1,1-dicarboxamide], the half-inhibitory concentration (IC50) came out at 10 nM. Then `CN1CCN(C2CCN(C(=O)Nc3cc(Oc4cc(F)c(NC(=O)C5(C(=O)Nc6ccc(F)cc6)CC5)cc4F)ccn3)CC2)CC1` [N-(2,5-Difluoro-4-{[2-({[4-(4-methylpiperazin-1-yl)piperidin-1-yl]carbonyl}amino)pyridin-4-yl]oxy}phenyl)-N′-(4-fluorophenyl)cyclopropane-1,1-dicarboxamide], with 100 nM; and `CN1CCC(N(C)C(=O)Nc2cc(Oc3cc(F)c(NC(=O)C4(C(=O)Nc5ccc(F)cc5)CC4)cc3F)ccn2)CC1` [N-(2,5-Difluoro-4-{[2-({[methyl(1-methylpiperidin-4-yl)amino]carbonyl}amino)pyridin-4-yl]oxy}phenyl)-N′-(4-fluorophenyl)cyclopropane-1,1-dicarboxamide], with 95 nM; and `O=C(Nc1cc(Oc2ccc(NC(=O)C3(C(=O)Nc4ccc(F)cc4)CC3)c(F)c2)ccn1)N1CCC1` [N-[4-({2-[(Azetidin-1-ylcarbonyl)amino]pyridin-4-yl}oxy)-2-fluorophenyl]-N′-(4-fluorophenyl)cyclopropane-1,1-dicarboxamide], with 59 nM. Then `O=C(Nc1cc(Oc2cc(F)c(NC(=O)C3(C(=O)Nc4ccc(F)cc4)CC3)cc2F)ccn1)N1CC(O)C1` [N-{2,5-Difluoro-4-[(2-{[(3-hydroxyazetidin-1-yl)carbonyl]amino}pyridin-4-yl)oxy]phenyl}-N′-(4-fluorophenyl)cyclopropane-1,1-dicarboxamide], with 9.5 nM.
